From patent US10583113B2, “Cromolyn compositions for treatment of pulmonary fibrosis” (Respivant Sciences, GmbH, priority 2016, dated 2020)

How the values were obtained:
[1] = Pharmacokinetics of cromolyn sodium in plasma and lung after single intraperitoneal injection; format: in vivo, male BALB/c mice; details: single IP injection, 10 mg/kg and 100 mg/kg
Method: BALB/c male mice, weighing 22±2 g, were provided by BioLasco Taiwan. All animals were maintained in a well-controlled temperature (20-24° C.) and humidity (30%-70%) environment with 12 hours light/dark cycles. The mice were given free access to a standard lab diet [MFG (Oriental Yeast Co., Ltd., Japan)] and autoclaved tap water.
The solution was administered to the mice by IP injection at concentrations of 10 mg/kg and 100 mg/kg. The dosing volume for both dose strengths was 5 mL/kg.
The mice were sedated under general inhalant anesthesia (3% isoflurane) for blood collection by cardiac puncture. […]
The plasma samples were processed using acetonitrile (ACN) precipitation and analyzed by LC-MS/MS. […] The processed plasma samples were stored at −70° C. until receiving LC-MS/MS analysis, at which time peak areas were recorded, and the concentrations of the test substance in the unknown plasma samples were determined using the respective calibration curve. The reportable linear range of the assay was determined, along with the lower limit of quantitation (LLQ).
Each lung was homogenized in 1.5 mL cold phosphate-buffered saline (PBS) at pH 7.4 for 10 seconds on ice. The lung homogenate was centrifuged at 5,400×g for 15 minutes at 4° C., and the supernatant was subsequently processed using ACN precipitation and analyzed by LC-MS/MS. […]

[2] = available formulations of DSCG, not the compositions of the disclosure; cited from earlier work

O=C([O-])c1cc(=O)c2c(OCC(O)COc3cccc4oc(C(=O)O)cc(=O)c34)cccc2o1.[Na+] [cromolyn sodium, disodium 5,5′-(2-hydroxypropane-1,3-diyl)bis(oxy)bis(4-oxo-4H-chromene-2-carboxylate)]
Exposure of cromolyn sodium in plasma and lungs [1]: Significant exposure
Bioavailability of the available formulations [2]: approximately 1%
